From US20140154730A1, “METHOD FOR STABILIZATION OF FLUID BIOLOGICAL SAMPLES” (DENATOR AB, priority 2011, published 2014)

What was measured:
[1] = Stabilization of oseltamivir in mouse blood spotted on Whatman FTA DMPK-C card; type: in vitro ADME; conditions: mouse blood spiked 500 ng/mL; for % oseltamivir metabolized: 25 μL spot on Whatman FTA DMPK-C card
Experimental: Oseltamivir is an oral prodrug of oseltamivir carboxylate, a selective inhibitor of viral neuramidase glycoprotein in influenza A. Oseltamivir undergoes fast bioconversion to oseltamivir carboxylate mostly by carboxylesterase 1 (CES 1).
Mouse blood was spiked with oseltamivir, 500 ng/mL. 25 μL, blood was spotted on Whatman FTA DMPK-C card. Spot were left to dry at room temperature, or heat treated using a Stabilizor™ System (Denator A B, Göteborg, Sweden) then left to dry.

[2] = Effect of different drying conditions on oseltamivir metabolism in spotted mouse blood; type: in vitro ADME; conditions: mouse blood spiked 2000 ng/mL, 25 μL spot on Whatman FTA DMPK-C card
Experimental: (§1) FIG. 2 is a graph showing the amount of metabolized Oseltamivir in samples following different treatments. Samples A were treated according to standard procedures according to manufacturer's instructions, i.e. dried in open air for 2 hrs. Samples B were dried in closed bags with silica. Samples C were heat stabilized and subsequently dried in open air. Samples D were heat stabilized and subsequently dried in closed bags with silica. Values in FIG. 2 showing % oseltamivir metabolized are mean of three samples
as §1, with “Mouse blood was spiked with oseltamivir, 2000 ng/mL. 25 μL, blood was spotted on Whatman FTA DMPK-C card. Spots were allowed to dry under” for “FIG. 2 is a graph showing the amount of metabolized Oseltamivir in samples following”, “conditions, with our without prior heat stabilization.” for “treatments.”, “samples.” for “samples”

CCOC(=O)C1=C[C@@H](OC(CC)CC)[C@H](NC(C)=O)[C@@H](N)C1 [oseltamivir]
% oseltamivir metabolized ([1]; treatment: Drying at room temperature only): 27% | % oseltamivir metabolized ([1]; treatment: Heating (Stabilizor System) then left to dry): 3% | metabolism of the prodrug, heat treatment compared to only passive drying ([1]; sample on paper, heat treated): strongly reduced the metabolism | amount of metabolized oseltamivir, not heat stabilized, dried in closed bags with silica (Samples B) ([2]; compared to drying in open air): even higher amount of metabolized oseltamivir | amount of metabolized oseltamivir, heat stabilized, dried in closed bags with silica (Samples D) ([2]; compared to drying in open air (Samples C)): does not affect the amount of metabolized oseltamivir | amount of metabolized oseltamivir, heat stabilized samples (C, D) versus not heat stabilized ([2]; mean of three samples): significant lower amount of metabolized oseltamivir
